Literature values as cited in patent US20230295183A1, “HOT MELT EXTRUDED SOLID DISPERSIONS CONTAINING A BCL2 INHIBITOR” (Newave Pharmaceutical Inc., priority 2020, published 2023).

What was measured:
established tumors = conditions: mouse, in vivo
[1] = in vivo
H345 xenograft = conditions: 100 mg/kg/day, H345 xenograft model
SCLC H146 cell line = conditions: read-out: IC50 against SCLC H146 cell line
circulating platelets = conditions: clinical trial; dose-limiting thrombocytopenia
Bcl-w = molecular target: T1, Bcl-w (Homo sapiens, UniProt Q92843)
T1 sequence (Q92843 1-193): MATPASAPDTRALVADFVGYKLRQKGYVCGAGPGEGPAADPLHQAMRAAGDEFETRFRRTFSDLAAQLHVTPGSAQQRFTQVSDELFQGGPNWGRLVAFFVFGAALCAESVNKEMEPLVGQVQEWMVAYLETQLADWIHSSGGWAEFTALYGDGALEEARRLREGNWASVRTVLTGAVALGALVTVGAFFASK

[2] = system: xenograft models of small-cell lung cancer and acute lymphoblastic leukemia; conditions: oral administration, alone
Mcl-1 = Mcl-1 (Homo sapiens, UniProt Q07820)
Sequence of Mcl-1 (Q07820 whole entry): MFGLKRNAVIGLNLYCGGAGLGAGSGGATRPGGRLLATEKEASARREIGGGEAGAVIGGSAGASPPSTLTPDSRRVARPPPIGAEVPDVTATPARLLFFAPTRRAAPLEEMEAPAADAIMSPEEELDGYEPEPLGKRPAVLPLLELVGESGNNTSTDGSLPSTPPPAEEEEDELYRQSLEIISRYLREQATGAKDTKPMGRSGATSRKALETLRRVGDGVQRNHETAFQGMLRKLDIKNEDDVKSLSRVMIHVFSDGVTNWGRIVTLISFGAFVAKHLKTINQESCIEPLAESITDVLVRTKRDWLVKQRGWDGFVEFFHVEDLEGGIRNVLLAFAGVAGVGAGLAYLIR

CLL = conditions: read-out: average EC50, apoptosis in CLL
RS4;11 xenografts = conditions: single dose of 100 mg/kg

CN(C)CC[C@H](CSc1ccccc1)Nc1ccc(S(=O)(=O)NC(=O)c2ccc(N3CCN(Cc4ccccc4-c4ccc(Cl)cc4)CC3)cc2)cc1[N+](=O)[O-] [ABT-737]
aqueous solubility: low aqueous solubility
antitumor effect in animal models (established tumors): causes regression of established tumors
oral bioavailability [1]: not orally bioavailable

CC1(C)CCC(c2ccc(Cl)cc2)=C(CN2CCN(c3ccc(C(=O)NS(=O)(=O)c4ccc(N[C@H](CCN5CCOCC5)CSc5ccccc5)c(S(=O)(=O)C(F)(F)F)c4)cc3)CC2)C1 [ABT-263]
TGI (H345 xenograft): 80%
treated tumors indicating at least a 50% reduction in tumor volume (H345 xenograft): 20%
IC50 (SCLC H146 cell line): 110 nM
effect on number of circulating platelets (circulating platelets): rapid, concentration-dependent decrease in the number of circulating platelets
Ki (Bcl-w): ≤ 1 nM
antitumor effect in xenograft models [2]: complete tumor regressions
oral bioavailability [1]: orally bioavailable

CC1(C)CCC(CN2CCN(c3ccc(C(=O)NS(=O)(=O)c4ccc(NCC5CCOCC5)c([N+](=O)[O-])c4)c(Oc4cnc5[nH]ccc5c4)c3)CC2)=C(c2ccc(Cl)cc2)C1 [ABT-199]
activity to Mcl-1 (Mcl-1): no activity
EC50 (CLL): 3 nM
EC50 (RS4;11 cells): 8 nM
maximal tumor growth inhibition (RS4;11 xenografts): 95%
tumor growth delay (RS4;11 xenografts): 152%
